Assay [1] concerns the target T1, human FXR alpha ligand binding domain (Homo sapiens, UniProt Q96RI1).
T1 construct: made in house; host or cells: E. coli BL21(DE3), vector pDEST15
T1 sequence (Q96RI1 187-472 isoform Q96RI1-2): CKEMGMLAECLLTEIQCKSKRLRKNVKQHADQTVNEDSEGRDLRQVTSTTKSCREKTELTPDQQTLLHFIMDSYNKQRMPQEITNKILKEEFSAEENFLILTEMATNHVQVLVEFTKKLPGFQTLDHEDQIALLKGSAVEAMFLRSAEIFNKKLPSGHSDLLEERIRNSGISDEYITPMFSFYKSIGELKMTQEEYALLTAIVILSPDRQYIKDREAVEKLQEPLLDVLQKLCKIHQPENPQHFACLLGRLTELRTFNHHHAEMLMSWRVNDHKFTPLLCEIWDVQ
Description: FRET activity assay (ligand mediated cofactor peptide interaction, LANCE). The class given is biochemical. Particulars: potency range. How it is done: Determination of a ligand mediated cofactor peptide interaction to quantify ligand binding to the nuclear receptor FXR was performed as follows: Preparation of human FXR alpha ligand binding domain: The human FXRalpha LBD was expressed in E. coli strain BL21(DE3) as an N-terminally GST tagged fusion protein. The DNA encoding the FXR ligand binding domain was cloned into vector pDEST15 (Invitrogen). Expression was under control of an IPTG inducible T7 promoter. The amino acid boundaries of the ligand binding domain were amino acids 187-472 of Database entry NM_005123 (RefSeq). Expression and purification of the FXR-LBD: An overnight preculture of a transformed E. coli strain was diluted 1:20 in LB-Ampicillin medium and grown at 30° C. to an optical density of OD600=0.4-0.6. Gene expression was then induced by addition of 0.5 mM IPTG. Cells were incubated an additional 6 h at 30° C., 180 rpm. Cells were collected by centrifugation (7000×g, 7 min, room temperature). Per liter of original cell culture, cells were resuspended in 10 mL lysis buffer (50 mM Glucose, 50 mM Tris pH 7.9, 1 mM EDTA and 4 mg/mL lysozyme) and left on ice for 30 min. Cells were then subjected to sonication and cell debris removed via centrifugation (22000×g, 30 min, 4° C.). Per 10 mL of supernatant 0.5 mL prewashed Glutathione 4B sepharose slurry (Qiagen) was added and the suspension kept slowly rotating for 1 h at 4° C. Glutathione 4B sepharose beads were pelleted by centrifugation (2000×g, 15 sec, 4° C.) and washed twice in wash buffer (25 mM Tris, 50 mM KCl, 4 mM MgCl2 and 1M NaCl). The pellet was resuspended in 3 mL elution buffer per liter of original culture (elution buffer: 20 mM Tris, 60 mM KCl, 5 mM MgCl2 and 80 mM glutathione added immediately prior to use as powder). The suspension was left rotating for 15 min at 4° C., the beads pelleted and eluted again with half the volume of elution buffer than the first time. The eluates were pooled and dialysed overnight in 20 mM Hepes buffer (pH 7.5) containing 60 mM KCl, 5 mM MgCl2 as well as 1 mM dithiothreitol and 10% (v/v) glycerol. The protein was analysed by SDS-Page.
The method measures the ability of putative ligands to modulate the interaction between the purified bacterial expressed FXR ligand binding domain (LBD) and a synthetic biotinylated peptide based on residues 676-700 of SRC-1 (LCD2, 676-700). […] The ligand binding domain (LBD) of FXR was expressed as fusion protein with GST in BL-21 cells using the vector pDEST15. Cells were lysed by sonication, and the fusion proteins purified over glutathione sepharose (Pharmacia) according to the manufacturers instructions. For screening of compounds for their influence on the FXR-peptide interaction, the Perkin Elmer LANCE technology was applied. This method relies on the binding dependent energy transfer from a donor to an acceptor fluorophor attached to the binding partner of interest. For ease of handling and reduction of background from compound fluorescence LANCE technology makes use of generic fluorophore labels and time resolved detection Assays were done in a final volume of 25 μL in a 384 well plate, in a Tris-based buffer (20 mM Tris-HCl pH 7.5; 60 mM KCl, 5 mM MgCl2; 35 ng/μL BSA), containing 20-60 ng/well recombinantly expressed FXR-LBD fused to GST, 200-600 nM N-terminally biotinylated peptide, representing SRC1 aminoacids 676-700, 200 ng/well Streptavidin-xIAPC conjugate (Prozyme) and 6-10 ng/well Eu W1024—antiGST (Perkin Elmer). DMSO content of the samples was kept at 1%. After generation of the assay mix and diluting the potentially FXR modulating ligands, the assay was equilibrated for one hour in the dark at room temperature in FIA-plates black 384 well (Greiner). The LANCE signal was detected by a Perkin Elmer VICTOR2V™ Multilabel Counter. The results were visualized by plotting the ratio between the emitted light at 665 and 615 nm.
(In general: Time-resolved FRET reads energy transfer from a long-lived donor to a nearby acceptor.)

Assay [2] concerns the target T2, FXR ligand binding domain (Homo sapiens, UniProt Q96RI1).
T2 construct: expressed in transfected cells; host or cells: HEK293 cells (DSMZ), transient transfection of pCMV-BD-FXR-LBD
T2 sequence (Q96RI1 187-472 isoform Q96RI1-2): T1 sequence (Q96RI1 187-472 isoform Q96RI1-2)
Description: Mammalian One Hybrid (M1H) Gal4 reporter assay in HEK293 cells. Particulars: potency range. Type of assay: cell-based. The method, then: Determination of a ligand mediated Gal4 promoter driven transactivation to quantify ligand binding mediated activation of FXR was performed as follows: The cDNA part encoding the FXR ligand binding domain was cloned into vector pCMV-BD (Stratagene) as a fusion to the yeast GAL4 DNA binding domain under the control of the CMV promoter. The amino acid boundaries of the ligand binding domain were amino acids 187-472 of Database entry NM_005123 (RefSeq). The plasmid pFR-Luc (Stratagene) was used as the reporter plasmid, containing a synthetic promoter with five tandem repeats of the yeast GAL4 binding sites, driving the expression of the Photinus pyralis (American firefly) luciferase gene as the reporter gene. In order to improve experimental accuracy the plasmid pRL-CMV (Promega) was cotransfected. pRL-CMV contains the constitutive CMV promoter, controlling the expression of the Renilla reniformis luciferase. All Gal4 reporter gene assays were done in HEK293 cells (obtained from DSMZ, Braunschweig, Germany) grown in MEM with L-Glutamine and Earle's BSS supplemented with 10% fetal bovine serum, 0.1 mM nonessential amino acids, 1 mM sodium pyruvate, and 100 units Penicillin/[…] per mL at 37° C. in 5% CO2. Medium and supplements were obtained from Invitrogen. For the assay, […] were plated per well in 96 well plates in 100 μL per well MEM without Phenol Red and L-Glutamine and with Earle's BSS supplemented with 10% charcoal/dextran treated FBS (HyClone, South Logan, Utah), 0.1 mM nonessential amino acids, 2 mM glutamine, 1 mM sodium pyruvate, and 100 units Penicillin/[…] per mL, incubated at 37° C. in 5% CO2. The following day the cells were >90% confluence. Medium was removed and cells were transiently transfected using 20 μL per well of a OptiMEM—polyethylene-imine-based transfection-reagent (OptiMEM, Invitrogen; Polyethyleneimine, Aldrich Cat No. 40, 827-7) including the three plasmids described above. MEM with the same composition as used for plating cells was added 2-4 h after addition of transfection mixture. Then compound stocks, prediluted in MEM were added (final vehicle concentration not exceeding 0.1%). Cells were incubated for additional 16 h before firefly and renilla luciferase activities were measured sequentially in the same cell extract using a Dual-Light-Luciferase-Assay system (Dyer et al., Anal. Biochem. 2000, 282, 158-161). All experiments were done in triplicates.
In general terms: A reporter such as luciferase makes a cellular process visible.

The record followed here is patent publication US8952042B2, “FXR (NR1H4) binding and activity modulating compounds” (Phenex Pharmaceuticals AG, priority 2009, dated 2015).

Each structure is given as a SMILES string.

For the compound `Cn1nc(C(=O)O)c2ccc(C3CC3c3ccc(OCc4c(-c5c(Cl)cccc5Cl)noc4C4CC4)cc3Cl)cc21` (racemic) [Example 13, 6-(2-(2-chloro-4-((5-cyclopropyl-3-(2,6-dichlorophenyl)isoxazol-4-yl)methoxy)phenyl)cyclopropyl)-1-methyl-1H-indazole-3-carboxylic acid], the EC50 in assay [1] and in assay [2] was 0.01 to 0.1 µM in each case.
Take `O=C(O)c1cccc(C2CC2c2ccc(OCc3c(-c4c(Cl)cccc4Cl)noc3C3CC3)cc2Cl)c1` (single isomer, unassigned; (+)) [Example 5b, (+)-3-(2-(2-chloro-4-((5-cyclopropyl-3-(2,6-dichlorophenyl)isoxazol-4-yl)methoxy)phenyl)cyclopropyl)benzoic acid]: the EC50 in assay [1] and in assay [2] was > 0.1 µM in each case.
On to `O=C(O)c1ccc(C2CC2c2ccc(OCc3c(-c4c(Cl)cccc4Cl)noc3C3CC3)cc2Cl)cc1` (single isomer, unassigned; (+)) [Example 12b, (+)-4-(2-(2-chloro-4-((5-cyclopropyl-3-(2,6-dichlorophenyl)isoxazol-4-yl)methoxy)phenyl)cyclopropyl)benzoic acid], for which the EC50 in assay [1] and in assay [2] was > 0.1 µM in each case.
With `Cn1nc(C(=O)O)c2ccc(C3CC3c3ccc(OCc4c(-c5c(Cl)cccc5Cl)noc4C4CC4)cc3Cl)cc21` (single isomer, unassigned; (+)) [Example 13a, (+)-6-(2-(2-chloro-4-((5-cyclopropyl-3-(2,6-dichlorophenyl)isoxazol-4-yl)methoxy)phenyl)cyclopropyl)-1-methyl-1H-indazole-3-carboxylic acid], the EC50 in assay [1] and in assay [2] was 0.01 to 0.1 µM throughout.
Regarding `O=C(O)c1cccc(C2CC2c2ccc(OCc3c(-c4c(Cl)cccc4Cl)noc3C3CC3)cc2Cl)c1` (single isomer, unassigned; (-)) [Example 5a, (−)-3-(2-(2-chloro-4-((5-cyclopropyl-3-(2,6-dichlorophenyl)isoxazol-4-yl)methoxy)phenyl)cyclopropyl)benzoic acid], the EC50 (as a rule, the midpoint of the concentration-response curve) was < 0.01 µM in assay [1] and 0.01 to 0.1 µM in assay [2].
The corresponding values for `Cn1nc(C(=O)O)c2ccc(C3CC3c3ccc(OCc4c(-c5c(Cl)cccc5Cl)noc4C4CC4)cc3Cl)cc21` (single isomer, unassigned; (-)) [Example 13b, (−)-6-(2-(2-chloro-4-((5-cyclopropyl-3-(2,6-dichlorophenyl)isoxazol-4-yl)methoxy)phenyl)cyclopropyl)-1-methyl-1H-indazole-3-carboxylic acid] are < 0.01 µM and < 0.01 µM.
On the same counts, the results for `O=C(O)c1cccc(C2CC2c2ccc(OCc3c(-c4c(Cl)cncc4Cl)noc3C3CC3)cc2Cl)c1` (centres unmarked) [Example 1, 3-(2-(2-chloro-4-((5-cyclopropyl-3-(3,5-dichloropyridin-4-yl)isoxazol-4-yl)methoxy)phenyl)cyclopropyl)-benzoic acid] are 0.01 to 0.1 µM and 0.01 to 0.1 µM.
The corresponding values for `O=C(O)c1cccc(C2CC2c2ccc(OCc3c(-c4c(Cl)c[n+]([O-])cc4Cl)noc3C3CC3)cc2Cl)c1` (centres unmarked) [Example 2, 4-(4-((4-(2-(3-carboxyphenyl)cyclopropyl)-3-chlorophenoxy)methyl)-5-cyclopropylisoxazol-3-yl)-3,5-dichloropyridine 1-oxide] are 0.01 to 0.1 µM and 0.01 to 0.1 µM.
Consider `CC(C)c1nnn(-c2c(Cl)cccc2Cl)c1COc1ccc(C2CC2c2cccc(C(=O)O)c2)c(Cl)c1` (centres unmarked) [Example 3, 3-(2-(2-chloro-4-((1-(2,6-dichlorophenyl)-4-isopropyl-1H-1,2,3-triazol-5-yl)methoxy)phenyl)cyclopropyl)benzoic acid], for which the EC50 in assay [1] and in assay [2] was 0.01 to 0.1 µM throughout.
For the compound `CC(C)c1onc(-c2c(Cl)cccc2Cl)c1COc1ccc(C2CC2c2cccc(C(=O)O)c2)c(Cl)c1` (centres unmarked) [Example 6, 3-(2-(2-chloro-4-((3-(2,6-dichlorophenyl)-5-isopropylisoxazol-4-yl)methoxy)phenyl)cyclopropyl)benzoic acid], the EC50 in assay [1] and in assay [2] was 0.01 to 0.1 µM in each case.
In the case of `Clc1cc(OCc2c(-c3c(Cl)cccc3Cl)noc2C2CC2)ccc1C1CC1c1ccc(-c2nnn[nH]2)nc1` (centres unmarked) [Example 7, 4-((4-(2-(6-(1H-tetrazol-5-yl)pyridin-3-yl)cyclopropyl)-3-chlorophenoxy)methyl)-5-cyclopropyl-3-(2,6-dichlorophenyl)isoxazole], the 50% effective concentration (EC50) in assay [1] and in assay [2] was 0.01 to 0.1 µM throughout.
In the case of `O=C(O)c1ccc(C2CC2c2ccc(OCc3c(-c4c(Cl)cccc4Cl)noc3C3CC3)cc2Cl)cn1` (centres unmarked) [Example 8, 5-(2-(2-chloro-4-((5-cyclopropyl-3-(2,6-dichlorophenyl)isoxazol-4-yl)methoxy)-phenyl)cyclopropyl)picolinic acid], the EC50 in assay [1] and in assay [2] was 0.01 to 0.1 µM throughout.
With `O=C(NCCS(=O)(=O)O)c1ccc(C2CC2c2ccc(OCc3c(-c4c(Cl)cccc4Cl)noc3C3CC3)cc2Cl)cc1` (centres unmarked) [Example 15, 2-(4-(2-(2-chloro-4-((5-cyclopropyl-3-(2,6-dichlorophenyl)isoxazol-4-yl)methoxy)phenyl)cyclopropyl)benzamido)ethanesulfonic acid], the values for the EC50 in assay [1] and in assay [2] were 0.01 to 0.1 µM and > 0.1 µM, respectively.
